Where two headings read alike, the source gives them in different places.
Columns and labels:
Chlorella cultures = details: 1 g N/L of NH4; mixotrophic, acetic acid as organic carbon source; FIG. 11
Excerpt: The Chlorella cultures productivity using either ammonium (NH4) or nitrates (NO3) as the nitrogen source in mixotrophic culture conditions (i.e., supply of light, supply of acetic acid as the organic carbon source) were then compared. The cultures received NH4 at a concentration of 0.13 g N/L, 0.25 g N/L, 0.5 g N/L, or 1 g N/L for the ammonium treatments. The cultures received NO3 at a concentration of 0.25 g N/L or 1 g N/L for the nitrate treatments. Samples were taken to measure cell dry weight at 0, 39, 86, and 161.5 hours.

Chlorella (HS26) [1] = details: for final day (day 4) cell dry weight: FIG. 16
Procedure: Cultures of Chlorella (HS26) were inoculated at 0.3 g/L in glass column bioreactors at a volume of 700 mL of BG-11 culture media and maintained at a temperature of 27° C. The mixotrophic cultures received an initial batch of 1 g/L NH4Cl, aeration at a rate of 1 Liter per minute, an initial batch of 40 g glucose/L, and were supplied 270 micromoles of light using LED lights (LumiGrow, Inc., Emeryville, Calif.). Treatments were conducted at culture medium pH values of 6.5, 7.0, 7.3, 7.5, 7.8, 8.0, and 8.5. The culture medium pH was controlled with a pH auxostat supplying a titrate of 0.5% NH4OH and 0.75% HCl at the designated set points. Samples were taken daily to measure the cell dry weight, nitrogen concentration, and total protein. Results are show in FIGS. 13-17.

Chlorella (HS26) [2] = details: pH 7.0
Procedure: Cultures of Chlorella (HS26) were inoculated at 0.3 g/L in glass column bioreactors at a volume of 700 mL of BG-11 culture media and maintained at a temperature of 27° C. The mixotrophic cultures received aeration at a rate of 1 Liter per minute, an initial batch of 30 g glucose/L, and were supplied 270 micromoles of light using LED lights (LumiGrow, Inc., Emeryville, Calif.). In a first treatment, the culture was supplied with an initial batch of 3 g/L NaNO3 (“Nitrate” treatment), and the culture pH was controlled at a set point of 7.0 by a pH auxostat feed containing 0.75% HCl. […] Samples were taken daily to measure the cell dry weight, nitrogen concentration, and total protein.

Chlorella (HS26) [3] = test system: Chlorella (HS26)
Procedure: Cultures of Chlorella (HS26) were inoculated at 0.3 g/L in glass column bioreactors at a volume of 700 mL of BG-11 culture media and maintained at a temperature of 27° C. The mixotrophic cultures received aeration at a rate of 1 Liter per minute, an initial batch of 30 g glucose/L, and were supplied 270 micromoles of light using LED lights (LumiGrow, Inc., Emeryville, Calif.). In a first treatment, the culture was supplied with an initial batch of 3 g/L NaNO3 (“Nitrate” treatment), and the culture pH was controlled at a set point of 6.5 by a pH auxostat feed containing 0.50% HCl. In a second treatment, the culture was supplied with an initial batch of 3 g/L NaNO3 (“Nitrates” treatment), and the culture pH was controlled at a set point of 7.5 by a pH auxostat feed containing 0.50% HCl. […] Samples were taken daily to measure the cell dry weight, nitrogen concentration, and total protein.

Chlorella (HS26) [4] = details: for total protein content: FIG. 29; for growth (cell dry weight over time): FIG. 26
Procedure: Cultures of Chlorella (HS26) were inoculated at 0.3 g/L in glass column bioreactors at a volume of 700 mL of BG-11 culture media and maintained at a temperature of 27° C. The mixotrophic cultures received aeration at a rate of 1 Liter per minute, an initial batch of 30 g glucose/L, and were supplied 270 micromoles of light using LED lights (LumiGrow, Inc., Emeryville, Calif.). In a first treatment, the culture was supplied with an initial batch of 3 g/L NaNO3 (“Nitrate” treatment), and the culture pH was controlled at a set point of 7.0 by a pH auxostat feed containing 0.50% HCl. In a second treatment, the culture was supplied with an initial batch of 3 g/L NaNO3 (“Nitrates” treatment), and the culture pH was controlled at a set point of 8.0 by a pH auxostat feed containing 0.50% HCl. […] Samples were taken daily to measure the cell dry weight, nitrogen concentration, and total protein.

Schizochytrium limacinum = details: pH 6.5
Excerpt: The heterotrophic cultures received aeration at a rate of 1 Liter per minute, and an initial batch of 80 g glycerol/L. In a first treatment, the culture was supplied with an initial batch of 20 g/L monosodium glutamate (“Glutamate” treatment), and the culture pH was controlled at a set point of 6.5 by a pH auxostat feed containing 1% HCl. […] Samples were taken daily to measure the cell dry weight, nitrogen concentration, and total protein. Results are show in FIGS. 30-33.

Chlorella (HS26) cells = assay: pH drift of cultures suspended in different nitrogen sources (Example 1); assay type: cell-based; details: after 24 hours, compared to a control; light, shaking 100 RPM; FIG. 10
Procedure: The Chlorella cultures were supplied with light, and shaking from a shaker table at 100 RPM. The pH drift of each culture was measured after 24 hours and compared to a control.

## N [Ammonia, ammonia]
Chlorella cultures
  growth and productivity (cell dry weight): suffered
Chlorella (HS26) [1]; culture pH 6.5 to 8.5, particularly above 7.5, FIG. 17
  total protein on the final day (day 4): increased as the culture pH increased
Chlorella (HS26) [1]; culture pH above 7.5, FIG. 15
  accumulated protein (total protein content): increase in accumulated protein
Chlorella (HS26) [1]; culture pH above 7.5
  final day (day 4) cell dry weight: decreased as the culture pH increased
Chlorella (HS26) [1]; culture pH above 7.5, initial 1 g/L NH4Cl, 0.5% NH4OH titrant, FIG. 13
  growth (cell dry weight over time): impaired growth
Chlorella (HS26) [1]; culture pH of 7.5 and below
  final day (day 4) cell dry weight: substantially similar
Chlorella (HS26) [2]; 1.0 g/L NH4Cl, 0.5% NH4OH feed, versus Nitrate treatment, FIG. 18
  growth (cell dry weight over time): better growth than the Nitrate treatment
Chlorella (HS26) [2]; compared to the Nitrate treatment, FIG. 21
  increase in protein: 15%
Chlorella (HS26) [3]; Ammonia pH 6.5 treatment, among Ammonia and Nitrate treatments at pH 6.5 and 7.5, FIG. 22
  growth (cell dry weight over time): greatest amount of growth
Chlorella (HS26) [3]; Ammonia treatments pH 6.5 and 7.5 versus Nitrate treatments, FIG. 25
  total protein content: more protein than the Nitrate treatments
Chlorella (HS26) [4]; Ammonia culture grown at the higher pH (8.0)
  total protein content: highest resulting protein
Chlorella (HS26) [4]; Ammonia pH 7.0 treatment
  growth (cell dry weight over time): highest resulting growth
Chlorella (HS26) [4]; Ammonia pH 8.0 treatment
  growth (cell dry weight over time): impaired growth
Chlorella (HS26) [4]; Ammonia treatments pH 7.0 and 8.0 versus Nitrate treatments
  total protein content: more total protein than the Nitrate treatments
Schizochytrium limacinum; 1.0 g/L NH4Cl, 10% NH4OH feed, heterotrophic, glycerol, FIG. 30
  growth (cell dry weight over time): higher resulting growth than the Glutamate treatment
Schizochytrium limacinum; over the Glutamate treatment, FIG. 33
  increase in protein yield: 20%

## N.N.O=S(=O)(O)O [ammonium sulfate]
Chlorella (HS26) cells
  pH drift of culture: decreased in culture pH

## O=[N+]([O-])[O-].[Na+] [sodium nitrate, reference compound]
Chlorella (HS26) cells
  pH drift of culture: increased in culture pH
